Measured values reported in PubChem BioAssay AID2060610 (Molecular Pharmacology Branch, DTP, NCI, 2025).
Where “and” joins values, the source holds several entries; their conditions need not be identical. Equal values may be shown once.

System: 616215-338-R-J1-PDC complex spheroids, viability % test/control
Experiment: Anticancer human tumor 616215-338-R-J1-PDC patient-derived colon adenocarcinoma cell line growth inhibition [CLK]
Conditions: for viability, T/C: stronger effect = lower value; active = viability on the fitted dose curve at most 10% of control; inactive = the rest
Excerpt: A high-throughput screen of multi-cell type tumor spheroids was designed to identify active combinations of […] and targeted small molecules. Complex spheroids include a stromal component modeled by human endothelial cells (HUVEC) and fibroblasts modeled by human mesenchymal stem cells (MSCs). The concentration ranges selected for each drug and investigational agent were based upon clinically achievable concentrations if the clinical Cmax of the agent was known.
Compounds. The drugs and investigational agents: cirtuvivint (SM08502; NSC835563), CC-671 (NSC850746), vemurafenib (NSC761431), tapotoclax (NSC804041), sotorasib (NSC818433), adagrasib (NSC831453), MRTX-1133 (NSC836407), BAY2416964 (NSC825713), copanlisib (NSC816437), inavolisib (NSC800729), abemaciclib (NSC768073), osimertinib (NSC779217), entinostat (NSC756642), eltanexor (KPT-8602, NSC794443), venetoclax (NSC766270), ceralasertib (NSC777638), bortezomib (NSC756655), olaparib (NSC753686), talazoparib (NSC767125), alisertib (NSC759677), peposertib (NSC802822), gemcitabine (NSC613327), 5-fluorouracil (NSC19893), SN-38 (NSC673596), oxaliplatin (NSC266046), paclitaxel (NSC125973), and doxorubicin (NSC123127), were obtained from the National Cancer Institute (NCI) Developmental Therapeutics Program Chemical Repository. The FDA-approved anticancer drug set is available from the Developmental Therapeutics Program at https://dtp.cancer.gov/organization/dscb/obtaining/available plates.htm. […] The stock solutions were prepared in dimethyl sulfoxide (DMSO, Sigma-Aldrich, St. Louis, MO, cat. D2650), except for the platinum complexes which were prepared in saline (Quality Biological, Gaithersburg, MD, cat. 114-055-101), at 800-fold the tested concentration and stored at -70 degrees C prior to their use. All drugs and investigational agents were tested over a range starting from a high concentration at or near the clinical Cmax and decreasing in half-log increments. If the clinical Cmax for an agent had not been determined, the highest concentration tested was 10 microM.
Cell Culture. All cells were maintained in an incubator at 37 degrees C and 5% CO2 with 95% humidity. The PDC lines were cultured according to standard operating procedures established by the NCI PDMR. Briefly, all PDCs were thawed and cultured in Matrigel-coated flasks prepared with a working solution of 1X Ham's F-12 nutrient mix, without supplementation (Invitrogen, Waltham, MA, cat. 11765054), 100 U/mL penicillin-streptomycin (Invitrogen, cat. 15140122), and 2.5% Matrigel (Corning Inc., Corning, NY, cat. 354248) for the first three passages. The 947758-054-R-J2-PDC line was cultured in 6B/Colon 1A media, which includes advanced DMEM/F-12 (Thermo Fisher Scientific, cat. 12634028), 10 mM HEPES (Thermo Fisher Scientific, cat. 15630080), 1X GlutaMAX supplement (Thermo Fisher Scientific, cat. 35050061), 0.1 mg/mL primocin (InvivoGen, cat. ant-pm-2), 10% defined fetal bovine serum, heat inactivated (HyClone Laboratories Inc., cat. SH30070.03HI), 1.25 mM N-Acetyl-L-cysteine (Sigma-Aldrich, cat. A9165), 10 mM nicotinamide (Sigma-Aldrich, cat. N0636), 1X B-27 supplement (Thermo Fisher Scientific, cat. 17504044), 1X N-2 supplement (Thermo Fisher Scientific, cat. 17502048), and 10 microM Y-27632 dihydrochloride (Tocris Bioscience, cat. 1254). The 876862-298-R-J1-PDC was cultured in 6E media, which includes all 6B/Colon 1A media components plus 50% L-WRN conditioned media (ATCC, cat. CRL-3276), 50 ng/mL recombinant human EGF recombinant protein (hEGF; Thermo Fisher Scientific, cat. PHG0311), 10 ng/mL recombinant human fibroblast growth factor 10 (hGFG-10; PeproTech, cat. 100-26), 1 ng/mL recombinant human fibroblast growth factor 2 (hFGF-2; PeproTech, cat. 100-18B), and 1 µM prostaglandin E2 (PGE2; Tocris, cat. 2296). The 227483-062-R1-J1-PDC line was cultured in Panc media, containing all 6E components except hFGF-2, with the addition of 500 nM SB-431542 (Selleckchem, cat. S1067) and 10 nM gastrin (Tocris, cat. 3006). […]
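Note: spheroids exposed to agents for 7 days.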
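Throughout, for viability, T/C: 100% = DMSO vehicle wells.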

CC(=O)O[C@H]1C(=O)[C@@]2(C)[C@H]([C@H](OC(=O)c3ccccc3)[C@]3(O)C[C@H](OC(=O)[C@H](O)[C@@H](NC(=O)c4ccccc4)c4ccccc4)C(C)=C1C3(C)C)[C@]1(OC(C)=O)CO[C@@H]1C[C@@H]2O
< 31.6 nM: IC50 (curve of compound)
inactive: viability, T/C (compound 0.0316 µM) 32.9% and 37.9% | viability, T/C (compound 0.1 µM) 22.2% and 31.7% | viability, T/C (compound 0.316 µM) 18.2% and 24% | viability, T/C (compound 1 µM) 15.4% and 23.8% | viability, T/C (compound 3.16 µM) 19.5% and 23.1% | viability, T/C (compound 10 µM) 24% and 28.7%

C#Cc1c(F)ccc2cc(O)cc(-c3ncc4c(N5CC6CCC(C5)N6)nc(OCC56CCCN5CC(F)C6)nc4c3F)c12 (centres undefined) + CN1CCN(c2cc(C(=O)Nc3cc4cc(-c5cnn(C)c5)ccc4cn3)ccn2)CC1
< 31.6 nM: IC50 (curve of first compound, second compound 0.316 µM) | IC50 (curve of first compound, second compound 1 µM) | IC50 (curve of first compound, second compound 3.16 µM) | IC50 (curve of first compound, second compound 10 µM)
inactive: viability, T/C (second compound 0.0316 µM, first compound 0.0316 µM) 93.7% | viability, T/C (second compound 0.0316 µM, first compound 0.1 µM) 91.2% | viability, T/C (second compound 0.0316 µM, first compound 0.316 µM) 109% | viability, T/C (second compound 0.0316 µM, first compound 1 µM) 102% | viability, T/C (second compound 0.0316 µM, first compound 3.16 µM) 106% | viability, T/C (second compound 0.0316 µM, first compound 10 µM) 99.1% | viability, T/C (second compound 0.1 µM, first compound 0.0316 µM) 101% | viability, T/C (second compound 0.1 µM, first compound 0.1 µM) 103% | viability, T/C (second compound 0.1 µM, first compound 0.316 µM) 94.7% | viability, T/C (second compound 0.1 µM, first compound 1 µM) 101% | viability, T/C (second compound 0.1 µM, first compound 3.16 µM) 102% | viability, T/C (second compound 0.1 µM, first compound 10 µM) 74.7% | viability, T/C (second compound 0.316 µM, first compound 0.0316 µM) 36.2% | viability, T/C (second compound 0.316 µM, first compound 0.1 µM) 38.8% | viability, T/C (second compound 0.316 µM, first compound 0.316 µM) 30% | viability, T/C (second compound 0.316 µM, first compound 1 µM) 33.3% | viability, T/C (second compound 0.316 µM, first compound 3.16 µM) 24.7% | viability, T/C (second compound 0.316 µM, first compound 10 µM) 18.8%
active: viability, T/C (second compound 1 µM, first compound 0.0316 µM) 0.17% | viability, T/C (second compound 1 µM, first compound 0.1 µM) 0.82% | viability, T/C (second compound 1 µM, first compound 0.316 µM) 0.2% | viability, T/C (second compound 1 µM, first compound 1 µM) 0.18% | viability, T/C (second compound 1 µM, first compound 3.16 µM) 0.17% | viability, T/C (second compound 1 µM, first compound 10 µM) 0.71% | viability, T/C (second compound 3.16 µM, first compound 0.0316 µM) 0.13% | viability, T/C (second compound 3.16 µM, first compound 0.1 µM) 2.81% | viability, T/C (second compound 3.16 µM, first compound 0.316 µM) 0.12% | viability, T/C (second compound 3.16 µM, first compound 1 µM) 0.12% | viability, T/C (second compound 3.16 µM, first compound 3.16 µM) 0.13% | viability, T/C (second compound 3.16 µM, first compound 10 µM) 3.3% | viability, T/C (second compound 10 µM, first compound 0.0316 µM) 0.18% | viability, T/C (second compound 10 µM, first compound 0.1 µM) 1.06% | viability, T/C (second compound 10 µM, first compound 0.316 µM) 0.16% | viability, T/C (second compound 10 µM, first compound 1 µM) 0.18% | viability, T/C (second compound 10 µM, first compound 3.16 µM) 0.18% | viability, T/C (second compound 10 µM, first compound 10 µM) 2.17%
> 10000 nM: IC50 (curve of first compound, second compound 0.0316 µM) | IC50 (curve of first compound, second compound 0.1 µM)
